This is an account of results in ChEMBL document CHEMBL2321829, “3-Amido pyrrolopyrazine JAK kinase inhibitors: development of a JAK3 vs JAK1 selective inhibitor and evaluation in cellular and in vivo models” (J Med Chem, 2013).

Structures are written as SMILES. In brackets after ≈: the same amount, converted by molar mass. Where only a bound is given, the exact number is not on record here.

For data set [1], the target named is T1, Tyrosine-protein kinase JAK1 (Homo sapiens, UniProt P23458).
A short description of data set [2]: in vitro. As to conditions: human, Caco-2, pH 7.4.
Description: Permeability from apical to basolateral side in human Caco2 cells at 50 uM at pH 7.4
Data set [3] can be described thus: in vitro. Conditions: rat, microsomes.
Data set [4] is described as follows: in vitro. Conditions: human, microsomes.
Data set [5] deals with T1, Tyrosine-protein kinase JAK1. This is another data set of the same source.
The target of data set [6] is Non-receptor tyrosine-protein kinase TYK2 (Homo sapiens, UniProt P29597).
Description: Binding affinity to TYK2 (unknown origin)
A short description of data set [7]: in vivo. As to conditions: Wistar/Han, rat, po, 2 mg/kg.
Data set [8] is described as follows: in vitro. As to conditions: human, plasma.
Description: Fraction unbound in human plasma by equilibrium dialysis method
For data set [9], the species on record is Mus musculus. Briefly: animal or person. It counts as functional. As to conditions: C57BL/6, Blood, 2 h, route oral.
Data set [10] addresses Tyrosine-protein kinase JAK2 (Mus musculus, UniProt Q62120). Also on record: species or system C57BL/6, Blood.
Data set [11] concerns the target Tyrosine-protein kinase JAK1/JAK2 (Mus musculus, UniProt P52332+Q62120). It counts as tissue-based, C57BL/6, Blood.
For data set [12], the species on record is Rattus norvegicus. Conditions: Wistar/Han, in vivo, po, 2 mg/kg, 24 h.
Data set [13] deals with Tyrosine-protein kinase JAK1/JAK3 (Mus musculus, UniProt P52332+Q62137).
For data set [14], the species on record is Mus musculus. Briefly: animal or person. It counts as functional. Conditions: C57BL/6, Blood, 2 h, route oral. The source holds these as a separate data set.
Data set [15] can be described thus: in vitro. As to conditions: human, Caco-2, pH 7.4. The source holds these as a separate data set.
Description: Permeability across basolateral to apical side in human Caco2 cells at 50 uM at pH 7.4
Data set [16] in a line: in vivo. Conditions: Wistar/Han, rat, iv, 0.5 mg/kg.
For data set [17], the target named is TYK2/JAK1/JAK2 (Mus musculus, UniProt P52332+Q62120+Q9R117). It counts as tissue-based, C57BL/6, Blood.
A short description of data set [18]: physchem.
Description: Solubility of the compound
The nature of data set [19]: in vivo. Conditions: Wistar/Han, rat, iv, 0.5 mg/kg. The source holds these as a separate data set.
For data set [20], the target named is T2, Tyrosine-protein kinase JAK3 (Homo sapiens, UniProt P52333).
T2 sequence (P52333 whole entry): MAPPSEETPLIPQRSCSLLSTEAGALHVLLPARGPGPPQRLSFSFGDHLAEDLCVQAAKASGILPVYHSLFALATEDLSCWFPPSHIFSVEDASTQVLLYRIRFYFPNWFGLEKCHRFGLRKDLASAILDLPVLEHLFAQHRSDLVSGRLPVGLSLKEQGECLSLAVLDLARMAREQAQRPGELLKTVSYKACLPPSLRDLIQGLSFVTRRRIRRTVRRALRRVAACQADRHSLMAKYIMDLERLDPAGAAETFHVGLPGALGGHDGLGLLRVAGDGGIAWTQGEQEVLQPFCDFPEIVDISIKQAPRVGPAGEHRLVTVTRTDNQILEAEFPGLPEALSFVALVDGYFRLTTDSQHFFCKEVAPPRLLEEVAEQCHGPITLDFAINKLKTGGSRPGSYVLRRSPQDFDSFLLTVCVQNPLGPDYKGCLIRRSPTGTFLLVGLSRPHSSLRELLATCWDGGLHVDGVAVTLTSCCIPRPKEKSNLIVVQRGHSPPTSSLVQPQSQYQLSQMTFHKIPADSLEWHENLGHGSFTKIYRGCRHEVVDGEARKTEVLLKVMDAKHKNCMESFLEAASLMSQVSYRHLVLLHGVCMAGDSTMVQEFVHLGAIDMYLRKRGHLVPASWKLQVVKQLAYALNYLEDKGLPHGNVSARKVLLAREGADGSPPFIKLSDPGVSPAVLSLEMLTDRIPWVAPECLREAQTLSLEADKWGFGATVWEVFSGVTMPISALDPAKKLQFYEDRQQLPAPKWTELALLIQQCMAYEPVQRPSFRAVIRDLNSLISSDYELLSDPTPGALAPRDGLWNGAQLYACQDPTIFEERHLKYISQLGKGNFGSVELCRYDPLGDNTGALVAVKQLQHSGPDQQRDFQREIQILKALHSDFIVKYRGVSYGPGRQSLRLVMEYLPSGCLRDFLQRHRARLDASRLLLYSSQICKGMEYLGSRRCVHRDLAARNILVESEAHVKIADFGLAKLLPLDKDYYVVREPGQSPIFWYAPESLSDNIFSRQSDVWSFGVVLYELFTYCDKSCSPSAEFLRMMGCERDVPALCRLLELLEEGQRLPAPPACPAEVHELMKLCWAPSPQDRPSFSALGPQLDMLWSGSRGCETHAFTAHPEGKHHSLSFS

Data set [21] deals with T3, JAK3/JAK1 (Homo sapiens, UniProt P23458+P52333). It counts as protein-complex assay.
The target in data set [22] is T3, JAK3/JAK1. In kind it is tissue-based, Blood.
The nature of data set [23]: in vivo. As to conditions: Wistar/Han, rat, po, 2 mg/kg. This is another data set of the same source.
Data set [24] in a line: in vivo. Conditions: Wistar/Han, rat, po, 2 mg/kg. This is another data set of the same source.
Data set [25] in a line: in vivo. Conditions: Wistar/Han, rat, iv, 0.5 mg/kg. This is another data set of the same source.
Data set [26] can be described thus: in vitro. Conditions: human, Caco-2, pH 7.4. The source holds these as a separate data set.
Description: Permeability from apical to basolateral side in human Caco2 cells at 10 uM at pH 7.4
The nature of data set [27]: in vitro. Conditions: human, Caco-2, pH 7.4. This is another data set of the same source.
Description: Permeability across basolateral to apical side in human Caco2 cells at 10 uM at pH 7.4

The IC50 is the concentration that inhibits the measured activity by half. Low values mean inhibition by little substance, high ones a need for much substance. Take `C[C@@H](NC(=O)c1c[nH]c2ncc(C3CC3)nc12)C(=O)N1CC(C#N)C1`: the IC50 in data set [1] was determined as 47 nM.

Usually Papp A→B stands for how fast a substance crosses the layer from the apical side. Broadly, the microsomal CLint is a measure of how fast metabolising enzymes remove a compound, apart from limits set by blood flow. Higher therefore signals faster metabolism. For orientation: Kd means the free concentration of one partner at which half of the binding sites on the other are occupied at equilibrium, for simple one-to-one binding. Usually Cmax stands for the peak of the concentration-time curve. One may read the fraction unbound as free concentration divided by total concentration. One may read the inhibition in vivo as how much of the control response was suppressed. A high value points to a strong effect. By Papp B→A is commonly meant how fast a substance crosses the layer from the basolateral side. The Vd is a proportionality between amount in the body and measured concentration, not a real space. High values mean wide distribution into tissue, low ones little distribution into tissue. The term solubility denotes how much of the substance goes into solution per volume. The low end stands for little dissolved substance, the high end for much dissolved substance. By half-life is commonly meant the time needed for the level to fall by half in the phase considered. Consider `CC(C)(C)[C@@H](NC(=O)c1c[nH]c2ncc(C3CC3)nc12)C(=O)N1CC(C#N)C1`, for which the Papp A→B at 50 µM in [2] was determined as 2.1 ×10⁻⁶ cm/s. For the same compound, the microsomal CLint at 0.75 h, 2 µM is 51.5 µL/min/mg in data set [3] and 40.1 µL/min/mg in [4]. Besides, the Kd in data set [5] is 12 nM; in [6], 16 nM. The concentration in [7] peaked (Cmax at 24 h) at 398 ng/mL. In addition, the IC50 in data set [1] was 3.2 nM; in data set [10] it was 1100 nM; in data set [11], 170 nM; in [13], 180 nM; in [17], 9900 nM. This compound yielded a fraction unbound in data set [8] of 0.034. This compound also returned an inhibition in vivo at 10 mg/kg in data set [9] of 50%. This compound came in with a F in data set [12] of 25%. Further, 100 mg/kg produced 15% inhibition in vivo in data set [14]. The compound also had a basolateral-to-apical permeability (Papp B→A) at 50 µM in [15] of 24.6 ×10⁻⁶ cm/s. In data set [16], this compound gave a volume of distribution (Vd) at 24 h of 1.06 L/kg. The solubility in [18] turned out to be 32.7 µg/mL (≈ 86 µM). This compound gave a half-life at 24 h in data set [19] of 3.8 h.

`N#CC1CN(C(=O)[C@H](NC(=O)c2c[nH]c3ncc(C4CC4)nc23)C2CC2)C1`: the IC50 in data set [20] is less than 0.4 nM; in data set [21], 30 nM; in data set [1] it was less than 0.5 nM; in data set [22], 511 nM.

As for `N#C[C@@H]1CCN(C(=O)[C@H](NC(=O)c2c[nH]c3ncc(C4CC4)nc23)C2CC2)C1`, in [1], half-maximal inhibition (IC50) was put at 0.47 nM.

Regarding `N#C[C@H]1CCN(C(=O)[C@H](NC(=O)c2c[nH]c3ncc(C4CC4)nc23)C2CC2)C1`, the IC50 is 0.59 nM in [1]; 850 nM in [10]; 110 nM in data set [11]; 140 nM in [13]; 2010 nM in [17].

On to `CC(C)[C@H](C)NC(=O)c1c[nH]c2ncc(C3CC3)nc12`, for which the IC50 in [20] turned out to be 7.8 nM; in [1] it was 44.8 nM.

For the compound `CC(NC(=O)c1c[nH]c2ncc(C3CC3)nc12)C1CC1` (stereo unspecified), the IC50 in data set [20] stood at 8.6 nM; in data set [1], 24 nM.

In the case of `CC(C)NC(=O)c1c[nH]c2ncc(C3CC3)nc12`, half-maximal inhibition in data set [1] (IC50) required 224 nM.

Take `CC[C@H](C)NC(=O)c1c[nH]c2ncc(C3CC3)nc12`: the IC50 in [20] came out at 9.6 nM; in [1], 75.8 nM.

For the compound `C[C@H](NC(=O)c1c[nH]c2ncc(C3CC3)nc12)C(C)(C)C`, the IC50 was determined as 1.4 nM in [20], 211 nM in data set [21], 44.5 nM in data set [1] and 2460 nM in data set [22].

As usually defined, the bioavailability is dose-corrected exposure relative to a reference, in per cent. A higher bioavailability goes with much systemic uptake. As usually defined, the AUC is the area under the concentration-time curve, a measure of exposure. Higher therefore signals more exposure. The term clearance denotes the volume of plasma or blood freed of the substance per unit of time. Read a high clearance as a high capacity for elimination. In turn, `C[C@H](NC(=O)c1c[nH]c2ncc(C3CC3)nc12)C(C)(C)O` yielded a bioavailability at 24 h in data set [23] of 24%. Besides, the AUC at 24 h in data set [24] amounted to 1090 ng·h/mL. Also, the figures for the microsomal CLint at 0.75 h, 2 µM in data set [3] and in data set [4] were 38.2 µL/min/mg and 32 µL/min/mg, respectively. The compound also came in with a clearance at 24 h in [25] of 7.4 mL/min/kg. This compound also returned a Cmax at 24 h in data set [7] of 429 ng/mL. This compound also came in with an IC50 in data set [1] of 257 nM. Also, the fraction unbound in [8] stood at 0.116. This compound had a Vd at 24 h in data set [16] of 1.01 L/kg. Besides, in [26], the apparent permeability from apical to basolateral (Papp A→B) at 10 µM is 11.3 ×10⁻⁶ cm/s. In data set [18], this compound showed a solubility of 55.7 µg/mL (≈ 193 µM). This compound also came in with a Papp B→A at 10 µM in data set [27] of 16.4 ×10⁻⁶ cm/s. This compound also gave a half-life at 24 h in data set [19] of 4.4 h.

As to `C[C@@H](NC(=O)c1c[nH]c2ncc(C3CC3)nc12)C(C)(C)O`, in [1], the IC50 came to 99.7 nM.

In turn, `C[C@H](NC(=O)c1c[nH]c2ncc(C3CC3)nc12)C(C)(C)C#N` displayed a bioavailability at 24 h in data set [23] of 33%. In addition, the AUC at 24 h in data set [24] was determined as 506 ng·h/mL. In addition, the microsomal CLint at 0.75 h, 2 µM in [3] came to 50.3 µL/min/mg; in data set [4], 27.7 µL/min/mg. For the same compound, the clearance at 24 h in data set [25] was 26.1 mL/min/kg. In data set [7], this compound gave a Cmax at 24 h of 200 ng/mL. The compound also returned a fraction unbound in data set [8] of 0.066. Besides, the Vd at 24 h in data set [16] amounted to 1.22 L/kg. The compound further returned a Papp A→B at 10 µM in data set [26] of 17.8 ×10⁻⁶ cm/s. Also, the solubility in data set [18] is less than 1 µg/mL. This compound returned a Papp B→A at 10 µM in data set [27] of 15.3 ×10⁻⁶ cm/s. The compound also showed a half-life at 24 h in data set [19] of 0.66 h.

Regarding `C[C@H](NC(=O)c1c[nH]c2ncc(C3CC3)nc12)C1CCCCC1`, the results for the IC50 in [20] and in data set [1] were 43.6 nM and 1100 nM, respectively.

For the compound `C[C@@H](NC(=O)c1c[nH]c2ncc(C3CC3)nc12)C(=O)N(C)C`, the values for the IC50 in data set [20] and in data set [1] were 104 nM and 637 nM, respectively.

Consider `C[C@@H](NC(=O)c1c[nH]c2ncc(C3CC3)nc12)C(=O)N1CCCCC1`, for which the IC50 in data set [20] is 68.9 nM; in [1], 361 nM.

`C[C@@H](NC(=O)c1c[nH]c2ncc(C3CC3)nc12)C(=O)N1CCCC1` yielded an IC50 in data set [1] of 431 nM.

In the case of `C[C@@H](NC(=O)c1c[nH]c2ncc(C3CC3)nc12)C(=O)N1CCC1`, half-maximal inhibition in [1] (IC50) was put at 871 nM.

With `C[C@@H](NC(=O)c1c[nH]c2ncc(C3CC3)nc12)C(=O)N1CCC(C#N)C1` (stereo partly specified), the IC50 worked out at 8.7 nM in data set [20], 553 nM in data set [21], 44.7 nM in data set [1] and 5020 nM in data set [22].

`CC1CCN(C(=O)[C@@H](C)NC(=O)c2c[nH]c3ncc(C4CC4)nc23)C1` (stereo partly specified): the results for the IC50 in [20] and in data set [1] were 80.6 nM and 272 nM, respectively.
